Source: patent US5767298A, “Aminophospholipid compositions and uses thereof” (Indiana University Foundation, priority 1996, dated 1998)

Key:
[1] = pH-dependent cleavage of caged aminophospholipids (MLVs, 1 h, 37° C., phosphate analysis of TLC-separated lipids); assay type: physicochemical; settings: for cleavage at pH 3: after extended incubation at pH 3; for significant cleavage at physiologically desirable pH: pH 5.5-8, 37° C.; for cleavage at any pH: pH 3-8, 1 h, 37° C.; for pH of half-maximal cleavage: 1 h at 37° C.
Protocol: Derivatized aminophospholipids (C-DOPS (open circles), C-DOPE (filled circles), M-DOPE (open squares), D-DOPE (filled squares), T-DOPE (open triangles), and P-DOPE (filled triangles), 0.5 mM each) were suspended in citrate (pH 3, 4.5, and 6) or Hepes (pH 7 and 8) buffer and incubated for 1 h at 37° C.
pH-Dependent cleavage measurements. A chloroform solution of the "caged" aminophospholipid (0.1 μmol) being tested was dried under nitrogen and the lipid was resuspended in buffers (200 μL) of varying pH; pH 3 (50 mM citrate), pH 4.5 (50 mM citrate), pH 6 (50 mM citrate), pH 7 (50 mM Hepes), and pH 8 (50 mM Hepes), adjusted to physiological ionic strength (290-310 mOsM) with NaCl. Solutions were vortexed briefly to make multilamellar vesicles (MLVs) and placed in a shaking water bath for 1 h at 37° C. The reaction was quenched after 1 h with a Hepes buffer (0.5M, pH 8.0). The lipid was extracted and the aqueous phase washed twice with chloroform. The derivative was separated from DOPE or DOPS by normal phase silica TLC eluted with CHCl3:CH3OH:NH4OH:H2O (65:25:2.5:2.5). The fraction cleaved was determined by phosphate analysis of the corresponding iodine stained spots. A background measurement, not incubated at 37° C. for 1 h, but subjected to the same extraction and TLC procedures, was performed to correct for hydrolysis that occurred during workup. All measurements were completed in triplicate.
The pH dependence of cleavage of the DOPS and DOPE derivatives was determined by incubating lipid dispersions (MLVs) in buffers of varying pH for 1 h at 37° C. Hydrolysis was measured by phosphate analysis of TLC-separated products.

[2] = test system: human erythrocytes; assay: Erythrocyte shape change (morphological index): incorporation, uncaging and transport of lipid; assay type: cell-based
Protocol: (§1) A. Timecourse of erythrocyte shape change (morphological index) induced in washed human erythrocytes by C-DOPS liposomes (200 μM) incubated in HBS. At 45 min (arrow), one set of cells was centrifuged, resuspended in citrate buffer (100 mM, pH 5.5) and re-incubated at 37° C. (open circles). Aliquots were fixed with glutaraldehyde and analyzed by light microscopy. B. Low pH-induced cleavage of C-DOP^3 HS in human erythrocytes. Washed human red cells were treated with C-DOP^3 HS (55 nCi) for 45 min at 37° C. in HBS. After centrifugation, the cells were resuspended in citrate buffer (pH 5.5) and reincubated at 37° C. At the indicated timepoints, lipids were extracted from aliquots of cells, C-DOP^3 HS and DOP^3 HS were separated by thin layer chromatography, and radiolabeled lipids were quantitated by scintillation counting.
Washed human erythrocytes were incubated with sonicated suspensions of DLPS (200 μM, open circles, filled circles) or DLPC (200 μM, open squares) in citrate buffer pH 5.5 (open symbols) or in HBS (filled symbols) at 37° C. Aliquots were fixed with glutaraldehyde and analyzed by light microscopy.
(§2) Timecourse of erythrocyte shape change (MI) induced by suspensions of C-DLPS (200 μM, open circles, open triangles) and DLPC (200 μM, open squares) in HBS. After 15 min (arrow), one sample of cells (open circles) was centrifuged, resuspended in citrate buffer (100 mM, pH 5.5) and re-incubated at 37° C. At 15 or 75 min, aliquots of each sample were removed and treated with DOPC vesicles (20 mM, 5% HCT) for 15 min at 37° C. (closed symbols). At the indicated times aliquots were fixed with glutaraldehyde and analyzed by light microscopy.
Cells. Human erythrocytes were obtained from healthy adult volunteers by venipuncture and collected into EDTA (3.3 mM final concentration). Erythrocytes were pelleted by centrifugation (5 min, 3000 g), washed three times in Hepes buffered saline (HBS, 118 mM NaCl, 50 mM Hepes, 5 mM KCl, 1 mM MgSO4, 5 mM glucose, pH 8.25), and stored on ice at 50% hematocrit (HCT).
Phosphatidylserine transport assay. Previously washed erythrocytes were pelleted by centrifugation (5 min, 3000 g) and incubated at 50% HCT with sonicated DLPS, DLPC, C-DLPS, or C-DOPS vesicles (200 μM) in HBS according to the method of Daleke and Huestis (1985). At prescribed time points, the cells were fixed by adding 5 μL aliquots to 50 μL of glutaraldehyde (0.5%). Aliquots of fixed cells were examined by light microscopy for changes in cell morphology. Echinocytes were assigned scores of +1 to +5 based on the degree of […], discocytes were scored 0, and stomatocytes were given scores of -1 to -4 based on their degree of […] (Daleke & Huestis, 1989). Echinocytic shapes are indicative of cells with excess lipid in the outer monolayer, while stomatocytic shapes are indicative of cells with excess inner monolayer lipid (Sheetz & Singer, 1974). Thus, cell morphology can be used to measure the movement of exogenously added lipids from the outer to the inner monolayer. The average score of a field of 100 cells is defined as the morphological index (MI).
Hydrolysis of C-DOPS in human erythrocytes. Washed red blood cells were incubated with sonicated C-DOPS vesicles (200 μM) in HBS at 50% HCT for 45 min at 37° C. After 45 min (C-DOPS), the cells were centrifuged (16,000 g, 5 min) and the supernatant was removed. The cells were washed once with a citrate buffer (50 mM, 300 mOsM, pH 5.25) and then incubated at 20% HCT for varying lengths of time in citrate buffer. […] The final pH of the red cell suspensions in HBS was 7.58±0.02 and those suspensions in citrate buffer was 5.72±0.03 pH units. The values were corrected for temperature (37° C.). At the specified time points, an aliquot of cells was fixed and examined by light microscopy.

[3] = test system: human erythrocytes; assay: Back extraction of dilauroyl phospholipids from human erythrocytes with DOPC vesicles; assay type: cell-based
Protocol: as §2
Back extraction of dilauroyl phospholipids from human erythrocytes. Washed red blood cells were incubated with DLPS, DLPC, or C-DLPS (200 μM) in HBS at 50% HCT for 90 min at 37° C. After 15 min, an aliquot of the cells was removed and the short chain phospholipids in the outer monolayer were back extracted with sonicated DOPC vesicles (20 mM) in HBS at 5% HCT for 15 min at 37° C. A separate aliquot of C-DLPS-treated cells was removed at 15 min, centrifuged, resuspended in citrate buffer (pH 5.5), and reincubated at 37° C. After 60 min, an aliquot from the cells incubated at low pH was removed and the short chain phospholipids remaining in the outer monolayer were back extracted with DOPC. Two additional control experiments were performed: 1] DLPC (200 μM) was incorporated into cells as described above for 15 min and then back extracted with DOPC vesicles, and 2] cells without exogenously added lipid were incubated with DOPC vesicles under the conditions of the back extraction assay. In each of the forgoing experiments aliquots were removed at the prescribed time points and the morphological index was determined by light microscopy.

[4] = test system: aminophospholipid transporter, or "flippase"; settings: cited from earlier work; for inhibition of flippase: Seigneuret & Devaux, 1984, Daleke & Huestis, 1985, Connor & Schroit, 1987, Bitbol et al.
[5] = for time constant tau1 (initial fast component) / time constant tau2 (slow component): biexponential fit; for half-time for cleavage: citrate buffer, pH 5.5
Protocol: The extent of cleavage was determined by phosphate analysis of thin layer chromatographic separations of extracted lipids. The solid lines are non-linear least squares fits of the data to a double exponential equation (f(x)=α1*exp(-x/.tau.1)+α2*exp(-x/.tau.2)).
C-DOPE (0.5 mM, column 1) and C-DOPS (0.5 mM, columns 2-5) were suspended in citrate buffer, pH 5.5 (columns 1 and 2) containing Triton X-100 (0.1%, column 3), NaCl (1M, column 4) or egg PC (2.5 mM, column 5) and incubated for 1 h at 37° C. The extent of cleavage was quantitated by phosphate determination of thin layer chromatographic separations of extracted lipids. Kinetic parameters were determined by non-linear least squares fits of the data to a double exponential equation (see FIG. 2): A. Exponential coefficients α1 (open bars) and α2 (filled bars) B. Time constants .tau.1 (open bars) and .tau.2 (filled bars).
Chloroform solutions of C-DOPS or C-DOPE (0.1 μmol) were dried under nitrogen and resuspended in 200 μL of citrate buffer (50 mM, pH 5.5). MLVs were prepared as described above and placed in a shaking water bath at 37° C. At prescribed time points, the reaction was quenched with 50 μL of Hepes buffer (1M, pH 8.5), the lipid was extracted, and the amount of cleavage was determined by phosphate analysis of TLC-separated lipids.
In one set of experiments, the ionic strength of the citrate incubation buffer (pH 5.5) was raised by including 1M NaCl and cleavage was measured as described above. In a second set of experiments, C-DOPS cleavage was measured in the presence of Triton X-100 (0.1%). In a third set of experiments, a five fold excess of DOPC was add to the lipid suspensions to dilute the surface charge. In a fourth set of experiments, ethanol (0.05-0.5%), DTT (5 mM), aniline (1.5 mM), p-nitroaniline (1.5 mM), and DOPE (2.5 mM) were added in separate experiments to the incubation buffers as scavengers of the anhydride. The lipid products were extracted and isolated by thin-layer chromatography as described previously. A single time point at 2.5 or 3 h was analyzed. All measurements were completed in triplicate and data were fit to a biexponential equation (f(x)=α1*exp(-x/.tau.1)+α2*exp(-x/.tau.2)) using the program MacCurveFit (Kevin Raner, Mt. Waverley, Australia).

[6] = test system: human erythrocytes; assay: Cleavage of C-DOP^3 HS in intact human erythrocytes (TLC, scintillation counting); assay type: cell-based; settings: citrate buffer pH 5.5, 37° C.
Protocol: as §1
Hydrolysis of C-DOPS in human erythrocytes. […]
Uncaging of the C-DOPS derivative was measured in human red blood cells in order to test the feasibility of using the compound as a probe of aminophospholipid transport in biological membranes. […] Cleavage of C-DOP^3 HS was measured directly in intact erythrocytes. […] Following exchange with citrate buffer (pH 5.5), the cells were incubated at 37° C. and hydrolysis was measured by analysis of extracted lipids separated by thin layer chromatography.

[7] = pH 5.5
Protocol: In a fourth set of experiments, ethanol (0.05-0.5%), DTT (5 mM), aniline (1.5 mM), p-nitroaniline (1.5 mM), and DOPE (2.5 mM) were added in separate experiments to the incubation buffers as scavengers of the anhydride. The lipid products were extracted and isolated by thin-layer chromatography as described previously. A single time point at 2.5 or 3 h was analyzed. All measurements were completed in triplicate and data were fit to a biexponential equation (f(x)=α1*exp(-x/.tau.1)+α2*exp(-x/.tau.2)) using the program MacCurveFit (Kevin Raner, Mt. Waverley, Australia).
This hypothesis was tested by using nucleophilic scavengers to trap the released anhydride. Both water soluble (dithiothreitol, ethanol) and lipophilic (aniline, p-nitroaniline, and DOPE) scavengers were added to C-DOPS solutions and cleavage was measured at a timepoint when the slow rate of cleavage predominated (Table II).

[8] = 200 μM, citrate buffer (pH 5.5), 37° C.
[9] = after incorporation in HBS (15 min)

## CCCCCCCC/C=C\CCCCCCCC(=O)OCC(COP(=O)(O)OCCNC(=O)/C=C\C(=O)O)OC(=O)CCCCCCC/C=C\CCCCCCCC (stereo not drawn) [M-DOPE, N-maleyl-dioleoylphosphatidylethanolamine]
[1]
  cleavage at pH 3: 25%
  significant cleavage at physiologically desirable pH: did not occur

## CCCCCCCC/C=C\CCCCCCCC(=O)OCC(COP(=O)(O)OCCNC(=O)c1ccccc1C(=O)O)OC(=O)CCCCCCC/C=C\CCCCCCCC (stereo not drawn) [P-DOPE, N-phthalyl-dioleoylphosphatidylethanolamine]
[1]
  cleavage at pH 3: 25%
  significant cleavage at physiologically desirable pH: did not occur

## N-3,4,5,6-tetrahydrophthalyl-phosphatidylethanolamine [T-DOPE]
[1]
  cleavage at any pH: not cleaved to any appreciable extent

## CCCCCCCCCCCC(=O)OCC(COP(=O)(O)OCC(N)C(=O)O)OC(=O)CCCCCCCCCCC (stereo not drawn) [DLPS, dilauroylphosphatidylserine]
[2]; 200 μM, HBS, 37° C.
  erythrocyte shape change: became echinocytic initially but rapidly reverted to stomatocytes
[2]; [8]
  erythrocyte shape change: became echinocytic initially but rapidly reverted to stomatocytes

## CCCCCCCCCCCC(=O)OCC(COP(=O)([O-])OCC[N+](C)(C)C)OC(=O)CCCCCCCCCCC (stereo not drawn) [DLPC, dilauroylphosphatidylcholine]
[2]; [8]
  time echinocytic shape is retained: more than 1.5 h
  time to become echinocytic: ≤ 2 min
[2]; higher pH, data not shown
  shape changes at higher pH compared with pH 5.5: similar
[3]; [9]
  cell shape after back extraction with DOPC vesicles: identical results

## phosphatidylserine [PS]
[4]; PS versus PE, Zachowski et al., 1986
  affinity of flippase relative to PE: approximately ten-fold

## [O]=[V]([O-])([O-])[O-] [vanadate]
[4]
  inhibition of flippase: inhibited

## CCCCCCCC/C=C\CCCCCCCC(=O)OC[C@H](COP(=O)(O)OCCNC(=O)/C(C)=C\C(=O)O)OC(=O)CCCCCCC/C=C\CCCCCCCC [C-DOPE, N-citraconyl-dioleoylphosphatidylethanolamine]
[1]
  pH of half-maximal cleavage: 5.5 pH
[5]; citrate buffer pH 5.5, 37° C.
  time constant tau1 (initial fast component): 0.9 h
  time constant tau2 (slow component): 7 h
[5]
  half-time for cleavage: 110 min

## [Ca+2] [calcium]
[4]
  inhibition of flippase: inhibited

## citraconyl-dioleoylphosphatidyl-[3-^3 H]serine [C-DOP^3 HS]
[6]
  cleavage in erythrocytes compared with model membranes: followed a similar timecourse and extent in erythrocytes as in model membranes

## CCCCCCCC/C=C\CCCCCCCC(=O)OC[C@H](COP(=O)(O)OC[C@H](NC(=O)/C(C)=C\C(=O)O)C(=O)O)OC(=O)CCCCCCC/C=C\CCCCCCCC [C-DOPS, N-citraconyl-dioleoylphosphatidylserine]
[2]; HBS, 37° C., 200 μM
  time cells remain echinocytic: more than 1.5 h
[2]; Hepes buffer exchanged for citrate buffer (pH 5.5)
  cell shape after exchange of buffer to low pH: reverted to a more discoid shape
[7]; citrate buffer, 2.5 h
  % cleavage - scavenger: 55.2%
[7]; dithiothreitol, ethanol, aniline, p-nitroaniline, DOPE
  effect of scavengers on slower second rate: None of these scavengers attenuated the slower second rate
[1]
  pH of half-maximal cleavage: 6.5 pH
[5]; citrate buffer pH 5.5, 37° C.
  initial cleavage rate relative to C-DOPE: 6 fold
  time constant tau1 (initial fast component): 0.15 h
  time constant tau2 (slow component): 4.8 h
[5]
  half-time for cleavage: 85 min

## CCCCCCCCCCCC(=O)OC[C@H](COP(=O)(O)OC[C@H](NC(=O)C(C)=CC(=O)O)C(=O)O)OC(=O)CCCCCCCCCCC [C-DLPS, N-citraconyl-dilauroylphosphatidylserine]
[3]; 15 min in HBS, then low pH for additional 60 min
  cell shape after back extraction with DOPC vesicles: reverted to stomatocytes
[3]; HBS
  transbilayer location of lipid: remains in the outer monolayer
[3]; [9]
  cell shape after back extraction with DOPC vesicles: reverted to discocytes
[3]; citrate buffer (low pH)
  transbilayer location of lipid (portion): accumulates in the inner monolayer

## CCCCCCCC/C=C\CCCCCCCC(=O)OC[C@H](COP(=O)(O)OCCNC(=O)/C(C)=C(/C)C(=O)O)OC(=O)CCCCCCC/C=C\CCCCCCCC [D-DOPE, N-dimethylmaleyl-dioleoylphosphatidylethanolamine]
[1]
  cleavage at any pH: not cleaved to any appreciable extent
